{"source": "BindingDB's records for patent US10399948", "about": "(Vanderbilt University, 2019)", "note": "pIC50: −log10 of the molar value.", "data": [{"biological_target": "Metabotropic glutamate receptor 5 (Rattus norvegicus, UniProt P31424)", "sequence (P31424 whole entry)": "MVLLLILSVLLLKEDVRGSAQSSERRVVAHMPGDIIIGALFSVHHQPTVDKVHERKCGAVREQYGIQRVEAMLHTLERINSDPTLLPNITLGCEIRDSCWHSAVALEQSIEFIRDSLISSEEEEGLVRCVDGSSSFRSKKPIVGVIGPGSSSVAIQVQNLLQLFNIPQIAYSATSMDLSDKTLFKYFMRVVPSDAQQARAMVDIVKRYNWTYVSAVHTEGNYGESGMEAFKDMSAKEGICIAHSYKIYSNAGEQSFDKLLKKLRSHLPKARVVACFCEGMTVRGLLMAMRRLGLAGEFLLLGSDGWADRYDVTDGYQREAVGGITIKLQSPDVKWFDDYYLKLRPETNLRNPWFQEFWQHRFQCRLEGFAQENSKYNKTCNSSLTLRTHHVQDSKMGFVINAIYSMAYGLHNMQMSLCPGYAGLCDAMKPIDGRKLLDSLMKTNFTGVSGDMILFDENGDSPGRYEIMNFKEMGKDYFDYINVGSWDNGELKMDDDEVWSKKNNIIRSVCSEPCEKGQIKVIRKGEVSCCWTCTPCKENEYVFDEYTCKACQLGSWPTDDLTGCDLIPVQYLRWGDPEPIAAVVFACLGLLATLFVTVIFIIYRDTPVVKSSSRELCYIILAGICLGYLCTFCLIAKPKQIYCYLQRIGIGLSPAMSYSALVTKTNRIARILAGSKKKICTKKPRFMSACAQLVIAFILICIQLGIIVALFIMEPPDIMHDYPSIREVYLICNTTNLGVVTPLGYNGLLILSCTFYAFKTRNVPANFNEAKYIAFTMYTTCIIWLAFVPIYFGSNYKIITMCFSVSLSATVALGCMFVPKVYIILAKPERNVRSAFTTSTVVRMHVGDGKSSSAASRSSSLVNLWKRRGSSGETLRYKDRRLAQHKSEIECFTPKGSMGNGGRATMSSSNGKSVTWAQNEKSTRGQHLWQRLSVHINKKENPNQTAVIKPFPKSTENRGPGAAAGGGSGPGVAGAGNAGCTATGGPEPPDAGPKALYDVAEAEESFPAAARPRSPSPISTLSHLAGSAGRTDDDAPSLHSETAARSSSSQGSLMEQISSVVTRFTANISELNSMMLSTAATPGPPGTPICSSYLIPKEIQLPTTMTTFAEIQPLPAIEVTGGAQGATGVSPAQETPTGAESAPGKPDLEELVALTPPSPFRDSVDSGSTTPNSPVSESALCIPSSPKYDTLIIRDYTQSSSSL", "test": "mGlu5 Ca2+ Flux Assay", "protocol": "HEK 293A cells stably expressing rat mGlu5 were plated in black-walled, clear-bottomed, poly-D-lysine coated 384-well plates in 20 μL of assay medium (DMEM containing 10% dialyzed FBS, 20 mM HEPES, 100 units/mL penicillin/streptomycin plus 250 ng/mL Fungizone, and 1 mM sodium pyruvate) at a density of 20K cells/well. The cells were grown overnight at 37° C. in the presence of 5% CO2. The next day, medium was removed and the cells incubated with 20 μL of […] Fluo-4, AM prepared as a 2.3 mM stock in DMSO and mixed in a 1:1 ratio with 10% (w/v) pluronic acid F-127 and diluted in assay buffer (Hank's balanced salt solution, 20 mM HEPES, and 2.5 mM probenecid) for 45 minutes at 37° C. Dye was removed, 20 μL of assay buffer was added, and the plate was incubated for 5 minutes at room temperature.Ca2+ flux was measured using the Functional Drug Screening System (FDSS7000, Hamamatsu, Japan). After establishment of a fluorescence baseline for about 3 seconds, the compounds of the present invention were added to the cells, and the response in cells was measured. 2.3 minutes later an EC20 concentration of the mGlu5 receptor agonist glutamate was added to the cells, and the response of the cells was measured for 1.9 minutes; an EC80 concentration of agonist was added and readings taken for an additional 1.7 minutes. All test compounds were dissolved and diluted to a concentration of 10 mM in 100% DMSO. Compounds were then serially diluted 1:3 in DMSO into 10 point concentration response curves, transferred to daughter plates, and further diluted into assay buffer to a 2× stock. Calcium fluorescence measures were recorded as fold over basal fluorescence; raw data was then normalized to the maximal response to glutamate. Potentiation of the agonist response of the mGlu5 receptor in the present invention was observed as an increase in response to submaximal concentrations of glutamate in the presence of compound compared to the response to glutamate in the absence of compound. Antagonism of the agonist response of the mGlu5 receptor in the present invention was observed as a decrease in response to nearly maximal concentrations of glutamate in the presence of compound compared to the response to glutamate in the absence of compound.The raw data file containing all time points was used as the data source in the analysis template. This was saved by the FDSS as a tab-delimited text file. Data were normalized using a static ratio function (F/F0) for each measurement of the total 360 values per well divided by each well's initial value. Data were then reduced to peak amplitudes (Max−Initial Min) using a time range that starts approximately 3 seconds prior to the glutamate EC20/EC80 addition and continues for approximately 90-120 seconds. This is sufficient time to capture the peak amplitude of the cellular calcium response. Individual amplitudes were expressed as % EMax by multiplying each amplitude by 100 and then dividing the product by the mean of the amplitudes derived from the glutamate ECMax-treated wells. EC50 values for test compounds were generated by fitting the normalized values versus the log of the test compound concentration (in mol/L) using a 4 parameter logistic equation where none of the parameters were fixed. Each of the three values collected at each concentration of test compound were weighted evenly", "values": [{"smiles": "O=c1nc(OCCOc2ccccc2)ccn1-c1cccc(F)c1", "note": "[US10399948, Compound 14]", "pIC50": 5.45}, {"smiles": "O=c1nc(OCCOc2ccccc2)ccn1-c1ccc(F)c(F)c1", "note": "[US10399948, Compound 15]", "pIC50": 6.37}, {"smiles": "O=c1nc(OCCOc2ccccc2)ccn1-c1ccc(F)cc1", "note": "[US10399948, Compound 17]", "pIC50": 5.92}, {"smiles": "N#Cc1cccc(-n2ccc(OCCOc3ccccc3)cc2=O)c1", "note": "[US10399948, Compound 22]", "pIC50": 5.22}, {"smiles": "N#Cc1cc(F)cc(-n2ccc(OCCOc3ccccc3)cc2=O)c1", "note": "[US10399948, Compound 23]", "pIC50": 5.88}, {"smiles": "O=c1cc(OCCOc2cc(Cl)ccn2)ccn1-c1ccc(F)cc1", "note": "[US10399948, Compound 49]", "pIC50": 5.06}, {"smiles": "O=c1cc(OCCOc2ncccc2Cl)ccn1-c1ccc(F)cc1", "note": "[US10399948, Compound 54]", "pIC50": 5.11}]}]}
